Target: Estrogen receptor beta (Homo sapiens, UniProt Q92731)
Sequence (Q92731 whole entry): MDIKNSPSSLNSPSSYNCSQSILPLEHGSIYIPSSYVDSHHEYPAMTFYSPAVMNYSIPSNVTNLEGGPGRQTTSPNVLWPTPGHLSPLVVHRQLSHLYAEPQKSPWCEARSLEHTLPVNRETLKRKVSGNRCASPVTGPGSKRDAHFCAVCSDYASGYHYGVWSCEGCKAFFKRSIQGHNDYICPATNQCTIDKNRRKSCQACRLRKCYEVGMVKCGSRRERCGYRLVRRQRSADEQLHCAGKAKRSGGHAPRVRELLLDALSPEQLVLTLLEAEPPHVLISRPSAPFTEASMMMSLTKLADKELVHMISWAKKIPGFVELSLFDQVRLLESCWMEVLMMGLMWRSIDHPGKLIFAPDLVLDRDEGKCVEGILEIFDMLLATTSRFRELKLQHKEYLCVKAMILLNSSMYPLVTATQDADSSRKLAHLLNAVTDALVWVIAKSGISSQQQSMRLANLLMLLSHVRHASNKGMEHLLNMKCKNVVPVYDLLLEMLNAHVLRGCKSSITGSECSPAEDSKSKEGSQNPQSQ
Description: Antagonist activity at human ER-beta transfected in human HepG2 cells incubated for 24 hrs by 3xERE-driven luciferase reporter assay

C=CCc1ccc(OC(=O)CCC)c(-c2ccc(O)c(CC=C)c2)c1
IC50: 1320 µM
